Type in all cases: ADME
Data set [1] concerns the target T1, UDP-glucuronosyltransferase 2B15 (Homo sapiens, UniProt P54855).
T1 sequence (P54855 whole entry): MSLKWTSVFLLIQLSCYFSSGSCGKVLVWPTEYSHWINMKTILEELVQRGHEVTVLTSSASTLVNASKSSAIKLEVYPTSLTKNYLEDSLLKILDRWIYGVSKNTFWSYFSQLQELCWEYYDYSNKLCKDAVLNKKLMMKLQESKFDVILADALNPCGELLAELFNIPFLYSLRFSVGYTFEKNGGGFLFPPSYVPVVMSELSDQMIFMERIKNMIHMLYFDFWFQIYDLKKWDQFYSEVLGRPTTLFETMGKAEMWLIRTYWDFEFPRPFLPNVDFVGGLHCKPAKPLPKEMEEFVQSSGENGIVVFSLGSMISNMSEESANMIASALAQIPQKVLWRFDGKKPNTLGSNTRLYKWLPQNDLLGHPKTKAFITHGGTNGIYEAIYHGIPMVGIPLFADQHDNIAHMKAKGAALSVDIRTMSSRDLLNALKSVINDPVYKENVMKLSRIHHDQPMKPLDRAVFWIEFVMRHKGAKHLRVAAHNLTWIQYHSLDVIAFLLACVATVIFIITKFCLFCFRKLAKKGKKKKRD
Kind of data set: Drug metabolism assessed as recombinant human UGT2B15 assessed as N-glucuronidation at 100 uM incubated for 60 mins by LC-MS/MS analysis. As to conditions: recombinant enzyme, 1 h.

Data set [2] deals with T2, UDP-glucuronosyltransferase 1A10 (Homo sapiens, UniProt Q9HAW8).
T2 sequence (Q9HAW8 whole entry): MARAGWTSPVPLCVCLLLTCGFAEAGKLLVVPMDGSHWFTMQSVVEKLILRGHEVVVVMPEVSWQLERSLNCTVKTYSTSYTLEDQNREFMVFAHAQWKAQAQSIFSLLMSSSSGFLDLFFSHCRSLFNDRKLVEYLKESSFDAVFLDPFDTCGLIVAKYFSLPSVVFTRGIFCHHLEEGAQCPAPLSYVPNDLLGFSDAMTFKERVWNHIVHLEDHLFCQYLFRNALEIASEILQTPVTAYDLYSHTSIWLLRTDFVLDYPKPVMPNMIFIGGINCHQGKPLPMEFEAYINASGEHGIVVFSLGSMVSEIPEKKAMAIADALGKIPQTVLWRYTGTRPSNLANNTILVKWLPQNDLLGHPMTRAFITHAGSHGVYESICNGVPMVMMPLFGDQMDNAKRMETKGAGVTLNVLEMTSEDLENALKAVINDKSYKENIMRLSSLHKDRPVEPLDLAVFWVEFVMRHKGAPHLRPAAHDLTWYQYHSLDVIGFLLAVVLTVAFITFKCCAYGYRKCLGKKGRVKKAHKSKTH
The data set is described as follows: Drug metabolism assessed as recombinant human UGT1A10 assessed as N-glucuronidation at 100 uM incubated for 60 mins by LC-MS/MS analysis. To be noted: recombinant enzyme, 1 h.

Data set [3] in a line: Drug excretion in human urine. As to conditions: read-out: Drug excretion.
Data set [4] has as its target T3, UDP-glucuronosyltransferase 2B17 (Homo sapiens, UniProt O75795).
T3 sequence (O75795 whole entry): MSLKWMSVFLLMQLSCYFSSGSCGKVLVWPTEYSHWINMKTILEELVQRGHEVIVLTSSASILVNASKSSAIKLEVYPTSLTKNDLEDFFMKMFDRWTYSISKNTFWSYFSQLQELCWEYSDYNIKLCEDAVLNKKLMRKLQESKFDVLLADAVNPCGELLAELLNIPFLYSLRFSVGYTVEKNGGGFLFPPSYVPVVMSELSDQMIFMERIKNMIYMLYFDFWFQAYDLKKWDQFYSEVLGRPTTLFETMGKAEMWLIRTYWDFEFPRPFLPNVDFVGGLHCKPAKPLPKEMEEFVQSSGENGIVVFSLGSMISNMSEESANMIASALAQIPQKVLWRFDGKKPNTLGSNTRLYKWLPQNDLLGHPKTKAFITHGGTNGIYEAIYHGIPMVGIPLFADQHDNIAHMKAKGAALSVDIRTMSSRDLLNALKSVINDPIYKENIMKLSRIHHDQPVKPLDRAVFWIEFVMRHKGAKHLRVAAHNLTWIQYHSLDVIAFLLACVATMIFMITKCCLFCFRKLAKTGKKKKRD
The data set is described as follows: Drug metabolism assessed as recombinant human UGT2B17 assessed as O-glucuronidation at 100 uM incubated for 60 mins by LC-MS/MS analysis. As to conditions: recombinant enzyme, 1 h.

The target of data set [5] is T4, UDP-glucuronosyltransferase 1A3 (Homo sapiens, UniProt P35503).
T4 sequence (P35503 whole entry): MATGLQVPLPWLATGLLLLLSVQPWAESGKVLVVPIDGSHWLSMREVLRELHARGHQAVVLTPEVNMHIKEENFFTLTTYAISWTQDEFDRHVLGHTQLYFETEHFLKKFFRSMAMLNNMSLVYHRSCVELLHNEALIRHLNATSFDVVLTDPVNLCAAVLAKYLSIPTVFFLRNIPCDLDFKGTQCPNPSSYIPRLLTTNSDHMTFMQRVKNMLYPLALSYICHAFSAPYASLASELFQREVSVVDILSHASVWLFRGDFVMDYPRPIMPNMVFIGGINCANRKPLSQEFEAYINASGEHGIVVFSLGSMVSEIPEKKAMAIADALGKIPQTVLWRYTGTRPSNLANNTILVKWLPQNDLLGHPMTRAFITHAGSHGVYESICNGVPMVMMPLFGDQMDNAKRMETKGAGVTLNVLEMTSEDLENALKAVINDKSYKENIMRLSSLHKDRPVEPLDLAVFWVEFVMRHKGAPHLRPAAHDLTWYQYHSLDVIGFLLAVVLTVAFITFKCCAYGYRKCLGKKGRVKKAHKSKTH
Kind of data set: Drug metabolism assessed as recombinant human UGT1A3 assessed as O-glucuronidation at 100 uM incubated for 60 mins by LC-MS/MS analysis. As to conditions: recombinant enzyme, 1 h.

Data set [6] addresses T5, UDP-glucuronosyltransferase 1A6 (Homo sapiens, UniProt P19224).
T5 sequence (P19224 whole entry): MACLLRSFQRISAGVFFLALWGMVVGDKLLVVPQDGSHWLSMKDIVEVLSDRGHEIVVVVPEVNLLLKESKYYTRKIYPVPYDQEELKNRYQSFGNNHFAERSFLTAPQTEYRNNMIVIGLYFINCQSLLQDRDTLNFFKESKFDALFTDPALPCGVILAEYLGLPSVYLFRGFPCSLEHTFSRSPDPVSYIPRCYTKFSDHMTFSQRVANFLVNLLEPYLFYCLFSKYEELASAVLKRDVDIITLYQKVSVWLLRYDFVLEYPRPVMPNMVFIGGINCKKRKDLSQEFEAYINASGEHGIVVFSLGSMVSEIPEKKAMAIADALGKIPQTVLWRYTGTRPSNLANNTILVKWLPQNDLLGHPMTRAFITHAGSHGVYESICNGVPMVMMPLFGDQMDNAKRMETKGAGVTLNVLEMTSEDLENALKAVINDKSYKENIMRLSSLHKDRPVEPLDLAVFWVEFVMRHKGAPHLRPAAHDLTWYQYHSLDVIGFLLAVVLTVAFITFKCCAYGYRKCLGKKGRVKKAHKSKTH
The data set is described as follows: Drug metabolism assessed as recombinant human UGT1A6 assessed as N-glucuronidation at 100 uM incubated for 60 mins by LC-MS/MS analysis. As to conditions: recombinant enzyme, 1 h.

The target in data set [7] is T2, UDP-glucuronosyltransferase 1A10. The data set is described as follows: Drug metabolism assessed as recombinant human UGT1A10 assessed as O-glucuronidation at 100 uM incubated for 60 mins by LC-MS/MS analysis. To be noted: recombinant enzyme, 1 h.

Turning to `O=C(CCCN1CCC(O)(c2ccc(Cl)cc2)CC1)c1ccc(F)cc1` [HALOPERIDOL], the Drug metabolism result in data set [1], in data set [2], in data set [4], in data set [5], in data set [6] and in data set [7] was “metabolite_not_detected” throughout. For the same molecule, the dose excreted in data set [3] came out at 1%.

Values taken from ChEMBL document CHEMBL3526000 (Drug Metab Dispos, 2012).
